Assays:
pancreas = test: Pancreatic total cholesterol and lipids in acute pancreatitis models in WT mice; assay type: in vivo, mouse; details: Arg-AP, CER-AP or CDE-AP
Experimental: FIGS. 8A-8M show derangement of cholesterol metabolism in experimental pancreatitis. Characteristics of cholesterol metabolism were measured, as detailed in FIGS. 4A-4R, in pancreas of WT mice subjected to pancreatitis induced with cerulein (CER-AP), L-arginine (Arg-AP), or CDE diet (CDE-AP) (A, B, and E-G); ex vivo pancreatitis induced in WT mouse (C and I-M) or human acinar cells (D) with 100 nM CCK (CCK-AP) or 1 mM carbachol; and isolated pancreatic mitochondria (H). (B) Cholesterol ester (CE) heatmap; each column represents an individual mouse. (F) IB analysis of the indicated proteins. (G) LAL activity was measured by a fluorogenic assay (n=6 mice per condition). (H) Cholesterol content was measured by enzymatic assay. (I-M) Filipin colocalization with indicated proteins was quantified as detailed in FIGS. 2A-2L. Each symbol in A, C-E, and H represents an individual mouse, or cell or mitochondria preparation (n=3-15 per condition). Each symbol in J, K, and M corresponds to 20-30 cells in a different field (n=10-20 fields from 3 cell preparations per condition). Values are mean±SEM. *P<0.05, **P<0.01, ***P<0.001 vs. the same parameter in control/untreated pancreas, acinar cells or isolated mitochondria. Significance was determined by 2-tailed Student's t test (B, E, H, J, K, and M) or 1-way ANOVA followed by Tukey's multiple comparison test (A, C, and D). Scale bars: 10 μm.
Parameters of cholesterol metabolism were measured in (A, B, E, F) pancreas of mice subjected to pancreatitis induced with cerulean (CER-AP), L-arginine (Arg-AP), or combination of EtOH+palmitoleic acid (EtOH+POA); and (C) ex-vivo models on mouse and human acinar cells treated for 1 h with 100 nM CCK, […] or 500 μM TLCS. […] (B, C) Total cholesterol content was measured with cholesterol assay kit (Abcam, ab65390). […] Signficance was determined by 2-tailed student's t test. […]
Total cholesterol content was measured with Cholesterol Assay kit per manufacturer's instructions. […]
Triglycerides (TAG) content was measured using Triglyceride Assay kit. […]

acinar cells = test: Oxygen consumption rate (OCR) of acinar cells, Seahorse; assay type: cell-based, mouse; details: etomoxir 40 μM
Experimental: FIGS. 7A-7Q show Gnptab ablation causes mitochondrial dysfunction in the pancreas. Mitochondrial functional parameters were measured in mitochondria isolated from pancreas (A, D, J, and M) or liver (N-P), in acinar cells (B, C, and I), and pancreatic (E-H, K, and L) and liver (Q) tissues of WT and KO mice. (A and N) Activities of mitochondrial ETC complexes I, II, IV, and V. (B, C, and I) Acinar cell oxygen consumption rates (OCR), reflecting mitochondrial OXPHOS, were measured in basal conditions and after treatment with the B-oxidation inhibitor etomoxir (40 μM), and normalized to total protein in the sample. (B) Representative OCR tracings in acinar cell suspension subjected to consecutive injections of the ATP synthase inhibitor oligomycin (Oligo; 3 μM), protonophore FCCP (2.7 μM), and […] rotenone plus antimycin A (R+A, 5 μM each; to correct for nonmitochondrial respiration). (C and I) ATP-linked respiration was calculated as the difference between basal OCR and that in Oligo-treated cells; the maximal OCR was obtained in FCCP-treated cells. (D and O) Mitochondrial membrane potential (ΔΨm) was measured with a tetraphenyl phosphonium ion (TPP+) electrode. FCCP (5 μM) was added to completely dissipate ΔΨm. (E) ATP was measured in pancreatic tissue homogenate with luciferin-luciferase assay. […] (G) Mitochondrial fragmentation was assessed by changes in Tom20 or VDAC immunostaining pattern, from an interconnected tubular mitochondrial network in WT to a predominantly disjoined/circular one in KO pancreas. […] (K) Long-chain acylcarnitines were measured with LC-MS/GC-MS. […] Significance was determined by 2-tailed Student's t test.
Oxygen consumption rates (OCR) were measured in live acinar cells using Seahorse XFe96, as in (15). […] In all within-set experiments the same volume of cell suspension were used with the same amount of protein; and partial oxygen pressure was monitored to ensure its stability in the cell suspension.

trypsin = test: Trypsin activity in Gnptab−/− acinar cells; assay type: cell-based, mouse; details: 3 hours; 50 μM CA-074Me or 20 nM BafA1
Experimental: FIGS. 6A-6R show mechanisms mediating increased trypsin activity in Gnptab−/− pancreas. Trypsin activity and its regulation were analyzed in pancreatic (A, C, and D) tissue, (B and P-R) acinar cells, (E-H and O) lobules, and (I-N) subcellular fractions. In B, acinar cells were incubated for 3 hours without and with 20 nM BafAl or 50 μM CatB inhibitor CA-074Me; in P-R, with the cholesterol chelator methyl-β-cyclodextrin (MCD) at the indicated concentrations. In E-H, pancreatic lobules were double stained for TAP and LC3 or LAMP2; in O, for TAP and filipin. Quantitative colocalization analysis was done as detailed in FIG. 2. Each symbol in A, B, J-N, Q, and R represents an individual mouse or cell preparation (n=3-8 per condition). Each symbol in D, G, and H corresponds to 20 to 30 cells in a different field (n=9-20 fields from 3 WT and 3 KO mice or lobule preparations). Values are mean±SEM. **P<0.01, ***P<0.001 vs. WT tissue/lobules (A, G, and H) or corresponding WT subcellular fraction (K and M). ##P<0.01 vs. no inhibitors (B) or MCD (Q and R). ††P<0.01, †††P<0.001 vs. the other two fractions (L and N). Significance was determined by 2-tailed Student's t test (A, G, and H) or 1-way ANOVA followed by Tukey's multiple comparison test (B, K-N, Q, and R). Scale bars: 10 μm.
Activities of cathepsin (Cat) B and L, caspase-3, trypsin, and lysosomal acid lipase (LAL) were measured in pancreatic tissue or cell homogenates and subcellular fractions with fluorogenic assays using substrates specific for CatB (Z-Arg-Arg-AMC), CatL (Z-Phe-Arg-AMC), caspase-3-like ([…]), trypsin (Boc-Gln-Ala-Arg-AMC), as previously described (1-4, 6, 7); and for LAL (4-methylumbelliferyl oleate), as in (17). In measurements of CatL activity, the assay buffer also contained 50 μM CA-074me, a CatB inhibitor. LAL activity was measured in the absence and presence of the LAL inhibitor lalistat (100 μM) as the difference between these values (17).

N=C(N)NCCC[C@H](N)C(=O)O [L-arginine]
pancreatic total cholesterol, AP models (pancreas): increases

CCOC(=O)[C@@]1(CCCCCCOc2ccc(Cl)cc2)CO1 [etomoxir]
respiration rates, KO (acinar cells; Gnptab−/− (KO) acinar cells): not significantly reduced
ATP-linked OCR, WT (acinar cells; WT acinar cells): inhibition
basal OCR, WT (acinar cells; WT acinar cells): inhibition

CCCNC(=O)[C@H]1O[C@@H]1C(=O)N[C@H](C(=O)N1CCC[C@H]1C(=O)OC)[C@@H](C)CC [CA-074Me]
Reduction of trypsin activity, Gnptab−/− acinar cells (trypsin): by half
